Data set [1] relates to PLC-PRF-5. Nature of the data set: Antiproliferative activity against human PLC/PRF/5 cells after 48 hrs by MTT assay. Conditions: PLC-PRF-5, 48 h. A general note: Formazan colour is commonly taken as a measure of viable cells.
The target in data set [2] is T1, Aminopeptidase N (Sus scrofa, UniProt P15145).
T1 sequence (P15145 whole entry): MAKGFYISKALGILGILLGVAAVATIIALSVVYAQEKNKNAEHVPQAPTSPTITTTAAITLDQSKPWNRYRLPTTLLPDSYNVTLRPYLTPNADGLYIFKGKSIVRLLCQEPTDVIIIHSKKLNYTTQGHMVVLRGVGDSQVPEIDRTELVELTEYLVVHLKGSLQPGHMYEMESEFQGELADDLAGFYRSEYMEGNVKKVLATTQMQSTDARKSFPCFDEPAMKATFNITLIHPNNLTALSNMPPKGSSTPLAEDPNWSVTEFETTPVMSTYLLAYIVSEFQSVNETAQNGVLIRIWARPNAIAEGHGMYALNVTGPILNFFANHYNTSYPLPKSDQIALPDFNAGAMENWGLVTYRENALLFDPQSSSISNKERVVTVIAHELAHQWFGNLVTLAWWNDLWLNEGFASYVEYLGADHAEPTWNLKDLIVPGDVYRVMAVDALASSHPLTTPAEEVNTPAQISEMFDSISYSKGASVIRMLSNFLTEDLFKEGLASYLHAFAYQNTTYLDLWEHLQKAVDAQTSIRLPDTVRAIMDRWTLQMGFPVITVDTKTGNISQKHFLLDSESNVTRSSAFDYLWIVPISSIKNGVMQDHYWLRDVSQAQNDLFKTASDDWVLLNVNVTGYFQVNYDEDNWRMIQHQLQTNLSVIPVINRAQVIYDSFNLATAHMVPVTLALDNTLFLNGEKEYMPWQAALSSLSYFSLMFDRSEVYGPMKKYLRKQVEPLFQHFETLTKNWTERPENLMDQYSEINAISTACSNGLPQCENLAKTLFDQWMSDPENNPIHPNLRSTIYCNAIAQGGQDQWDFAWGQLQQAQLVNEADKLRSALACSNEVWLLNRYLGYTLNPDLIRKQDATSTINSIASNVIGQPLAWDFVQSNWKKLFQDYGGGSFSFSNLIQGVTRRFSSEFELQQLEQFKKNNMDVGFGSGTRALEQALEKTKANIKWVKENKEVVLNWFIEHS
Nature of the data set: Inhibition of porcine kidney CD13 using L-leucine-p-nitroanilide as substrate preincubated for 5 mins followed by substrate addition measured after 30 mins.

Data set [3] in a line: cells. Conditions: Homo sapiens, ES-2, 48 h.
Description: Antiproliferative activity against human ES2 cells after 48 hrs by MTT assay
Data set [4] is described as follows: Apparent clearance in Wistar rat at 80 mg/kg, iv after 0.05 to 24 hrs by HPLC-MS/MS analysis. Conditions: in vivo, read-out: CL(app) (converted). The class given is ADME, organism-based.
Data set [5] concerns Rattus norvegicus. Description: VRT (0 to infinity) in Wistar rat at 80 mg/kg, iv after 0.05 to 24 hrs by HPLC-MS/MS analysis. The class given is ADME, organism-based. Conditions: in vivo.
The nature of data set [6]: AUC (0 to infinity) in Wistar rat at 80 mg/kg, iv after 0.05 to 24 hrs by HPLC-MS/MS analysis. The class given is ADME, organism-based. Details: dose 80 mg/kg, time infinity, route intravenous. Conditions: in vivo.
Data set [7] in a line: MRT (0 to infinity) in Wistar rat at 80 mg/kg, iv after 0.05 to 24 hrs by HPLC-MS/MS analysis. The class given is ADME, organism-based. Conditions: Wistar, in vivo.
Data set [8] in a line: Drug level in Wistar rat plasma treated with (5-fluoro-2,4-dioxo-3,4-dihydropyrimidin1(2H)-yl)methyl-2-((S)-2-((2S,3R)-3-amino-2-hydroxy-4-phenylbut-anamido)-4-methylpentanamido)acetate hydrochloride assessed as carboxylesterase-mediated compound formation at 80 mg/kg, iv by HPLC-MS/MS analysis. The class given is ADME, organism-based. Conditions: in vivo.
The nature of data set [9]: Volume of distribution during elimination phase in Wistar rat at 80 mg/kg, iv after 0.05 to 24 hrs by HPLC-MS/MS analysis. The class given is ADME, organism-based. Conditions: in vivo, read-out: Vz.
Data set [10] can be described thus: Cmax in Wistar rat at 80 mg/kg, iv after 0.05 to 24 hrs by HPLC-MS/MS analysis. The class given is ADME, organism-based. Details: dose 80 mg/kg, route intravenous. Conditions: in vivo.
Data set [11] can be described thus: Terminal Half life in Wistar rat at 80 mg/kg, iv after 0.05 to 24 hrs by HPLC-MS/MS analysis. Conditions: Wistar, in vivo, read-out: beta t1/2 (converted). The class given is ADME, organism-based.

pIC50: −log10 of the molar value.

`CC(C)C[C@H](NC(=O)[C@@H](O)[C@H](N)Cc1ccccc1)C(=O)NCCC(=O)OCn1cc(F)c(=O)[nH]c1=O`: the pIC50 in data set [1] was 4.23; in data set [2] it was 6.17; in [3], 3.88.

As to `CC(C)C[C@H](NC(=O)[C@@H](O)[C@H](N)Cc1ccccc1)C(=O)NCC(=O)O.Cl`, in data set [4], the clearance is 36.8 mL/min/kg. In data set [5], this molecule gave a VRT of 3.797 hr2. The same molecule had an AUC(0-inf) in [6] of 36200 ng·h/mL. In data set [7], the MRT inf worked out at 3.22 h. The Drug metabolism result in [8] is given as “Metabolite_Detected”. Further, the Vd in data set [9] turned out to be 3.93 L/kg. The concentration in data set [10] peaked (Cmax) at 8570 ng/mL. Also, the pIC50 in data set [2] is 6.22. Further, in data set [11], the half-life was 1.23 h.

Take `CC(C)C[C@H](NC(=O)[C@@H](O)[C@H](N)Cc1ccccc1)C(=O)NCCCC(=O)OCn1cc(F)c(=O)[nH]c1=O`: the pIC50 in data set [1] is 4.28; in data set [2] it was 6.16; in data set [3] it was 3.96.

Consider `CC(C)C[C@H](NC(=O)[C@@H](O)[C@H](N)Cc1ccccc1)C(=O)N[C@@H](C)C(=O)OCn1cc(F)c(=O)[nH]c1=O`, for which the negative-log IC50 (pIC50) in data set [1] was 4.62; in data set [2] it was 6.77; in [3] it was 4.60.

Turning to `CC(C)C[C@H](NC(=O)[C@@H](O)[C@H](N)Cc1ccccc1)C(=O)OCn1cc(F)c(=O)[nH]c1=O`, the figures for the pIC50 in data set [1], in [2] and in data set [3] were 4.74, 5.50 and 4.58, respectively.

As for `CC(C)C[C@H](NC(=O)[C@@H](O)[C@H](N)Cc1ccccc1)C(=O)NCCCCCC(=O)OCn1cc(F)c(=O)[nH]c1=O`, the negative logarithm of the IC50 (pIC50) was 4.22 in data set [1], 5.74 in data set [2] and 3.98 in [3].

What is called pIC50 is the negative decadic logarithm of the IC50, by convention in mol/L. The low end stands for a large IC50, the high end for a small IC50. What is called AUC(0-inf) is total exposure, with the tail of the curve extrapolated. For orientation: MRT inf means the average time that molecules of a dose stay in the body. Broadly, the Cmax is the peak of the concentration-time curve.

The values above are taken from ChEMBL document CHEMBL4138213, “Synthesis and biological characterization of ubenimex-fluorouracil conjugates for anti-cancer therapy” (Eur J Med Chem, 2018).
